Experiments:
[1] = test system: S. cerevisiae BY4741 fpr1-KO expressing human FKBP12 variants; assay: Yeast disk diffusion growth inhibition assay; type: cell-based, Saccharomyces cerevisiae; details: 100 µM on disk, 3 d
Text: BY4741 fpr1::URA3 yeast were generated by homologous recombination, selected on Ura- synthetic complete medium and subsequently grown in yeast extract-peptone-dextrose (YPD) medium ([46]). Human FKBP12 coding sequence was cloned via Gibson assembly into a pCH043 yeast expression vector, which had been previously modified with an HIS3 selection open reading frame (ORF). The C-terminal HA-tag and F46/V55 mutations were introduced by site-directed mutagenesis PCR. Plasmids were transformed into the BY4741 fpr1::URA3 strain and selected on His- synthetic complete medium. Isolated strains were verified by plasmid sequencing. To prepare yeast protein lysates, 2 optical density (OD) equivalents from an overnight culture was resuspended in 200 µl 0.1 M NaOH and incubated at room temperature for 15 min. Cells were pelleted, resuspended in 50 µL 2x SDS loading dye, and heated at 95 °C for 5 min. Following centrifugation at 20,000 × g for 10 min, supernatant was saved for analysis.
Yeast strains containing FKBP12-expression vectors were shaken overnight at 30 °C in 3 mL His- synthetic complete media. 0.1 OD of culture was spun down, resuspended in 1 mL sterile water, and 100 µL was spread on His-synthetic media containing galactose/raffinose to induce protein expression. Plates were incubated at 30 °C for 1 h to dry. Filter paper circles were prepared with a hole punch, placed on the plate, and 5 µL of DMSO, 100 µM rapamycin, or 100 µM Rapa* compound was pipetted onto the filter paper. Plates were incubated at 30 °C for 3 d before zones of growth inhibition were measured.

[2] = target: T1, FKBP12 V55G-HA / GST-mTOR FRB domain ternary complex (Homo sapiens, UniProt P42345+P62942, V56G); assay: TR-FRET ternary complex formation, FKBP12 V55G with mTOR FRB; type: binding; details: FKBP12 V55G + mTOR FRB, n = 3, read-out: EC50 of ternary complex induction, FKBP12 V55G
T1 construct: recombinant HA-tagged wild-type or V55G mutant FKBP12 with GST-tagged mTOR FRB domain; 8xHis (cleaved yes); made in house; host or cells: E. coli BL21 (DE3) for FKBP12
T1 sequence (P62942 whole entry V56G, the tested form may be a part): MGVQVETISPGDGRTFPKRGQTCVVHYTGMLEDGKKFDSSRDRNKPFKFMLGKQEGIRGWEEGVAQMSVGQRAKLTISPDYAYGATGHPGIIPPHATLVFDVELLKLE
T1 sequence (P42345 2012-2144 limits assumed): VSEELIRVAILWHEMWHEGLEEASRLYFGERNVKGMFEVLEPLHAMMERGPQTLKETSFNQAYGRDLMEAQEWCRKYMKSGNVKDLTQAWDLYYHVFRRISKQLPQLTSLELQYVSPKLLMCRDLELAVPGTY
Experimental: TR-FRET assay was performed using recommended conditions from Cisbio with slight modifications. FKBP12-HA, FKBP12 V55G-HA, and GST-mTORFRB recombinant proteins were each diluted to 5 nM in assay buffer (20 mM HEPES pH 7.5, 150 mM NaCl, 0.05% Tween-20, 0.1% bovine serum albumin [BSA], 0.5 mM dithiothreitol [DTT]). Anti-GST-Tb (Cisbio) and Anti-HA-XL665 (Cisbio) were diluted to 0.625 µg/mL and 5 µg/mL, respectively, in assay buffer. Rapa* compounds and FK506 were diluted to 50 µM and rapamycin to 5 µM in assay buffer containing 5% DMSO, and threefold serial dilution series were made from these solutions. We mixed 4 µL diluted FKBP12-HA protein, 4 µL diluted GST-mTORFRB, and 4 µL of compound or DMSO control in a well of a black low-volume 384-well plate (Corning 4514), and the mixture was incubated at room temperature for 1 h. We then added 4 µL of Anti-GST-Tb, and 4 µL Anti-HA-XL665, and the mixture was incubated at room temperature for an additional 1 h. Time-resolved fluorescence was read on a Tecan Spark 20M plate reader with the following parameters: Lag time: 60 µs; Integration time: 500 µs; Read A: Excitation filter 320 ([25]) nm, Emission filter 610 ([25]) nm, Gain 130; Read B: Excitation filter 320 ([25]) nm, Emission filter 665 ([8]) nm, Gain 165. Three replicates were performed for each assay condition. […]
Human FKBP12 coding sequence was cloned a pET-47b bacterial expression vector using Gibson assembly and a C-terminal HA-tag was added by QuickChange PCR. FKBP12 proteins were expressed as 8xHis fusions in E. coli BL21 (DE3) cells. […] Samples were then purified by size exclusion chromatography, concentrated to 10-20 mg/mL, and snap frozen in liquid nitrogen. pGEX-2T FRB was a gift from Jie Chen (Addgene plasmid #26607). mTOR FRB was expressed as a GST-fusion and purified as previously described (1). […]
PAMPA was performed by Quintara Discovery as described previously (2). Compounds were analyzed at 100 µM in PBS and measured using liquid chromatography-mass spectrometry (LC-MS) after 5 hours. […] Compounds were analyzed at 10 µM and measured by LC-MS after 1 hour.

[3] = test system: Flp-In 293 cells with and without FKBP12 V55G-HA; assay: Cell growth by CellTiter-Glo in Flp-In 293 cells; type: cell-based, human; details: 72 h treatment
Experimental: All cell lines were maintained in DMEM (Gibco) supplemented with 10% heat-inactivated FBS (Axenia Biologix) at 37 °C in 5% CO2. Flp-In T-REx 293 cells were obtained from Thermo Fisher supplemented with 15 µg/mL blasticin and 100 µg/mL Zeocin. […] When indicated, cells were treated with drugs at 60–80% confluency at a final DMSO concentration of 0.1%.
Cells were seeded into 96-well tissue-culture treated plates (Greiner) and were allowed to incubate for 24 h. Cells were treated with indicated compounds and incubated for 72 h (100 µL final well volume, 0.1% DMSO). Cell viability was assessed by CellTiter-Glo (Promega). Assay reagent was diluted 1:4 in PBS containing 1% Triton X-100, and 100 µL was added to each well and mixed on a plate shaker for 20 min. Luminescence was measured on a Tecan Spark 20M.

CCO/N=C1/C[C@@H]([C@H](C)C[C@@H]2CC[C@@H](O)[C@H](OC)C2)OC(=O)[C@@H]2CCCCN2C(=O)C(=O)[C@]2(O)O[C@@H](CC[C@H]2C)C[C@H](OC)/C(C)=C/C=C/C=C/[C@@H](C)C[C@@H](C)C(=O)[C@H](OC)[C@H](O)/C(C)=C/[C@H]1C [Rapa*-3Z]
Growth inhibition of yeast expressing FKBP12 V55G [1]: displayed the highest level of inhibition | EC50 [2]: 11.8 nM | Cell growth inhibition, 293 cells with and without FKBP12 V55G [3]: selectively inhibited growth of mutant-expressing 293 cells

Source: paper PMC9499525, “Tissue-restricted inhibition of mTOR using chemical genetics” (Proceedings of the National Academy of Sciences of the …, 2022)
